Results taken from patent publication US6646181B1, “Solid matrix control of seed conditioning using selected cell cycle stages” (Kamterter II, L.L.C., priority 1987, dated 2003).

Test system: lettuce (Lactuca sativa) 'Montello'
Assay: Alleviation of thermodormancy: lettuce germination at 35 C
Type: in vivo
Conditions: 35 C in the dark, after 10 days, priming 20-24 hours
Protocol: Alleviation of thermodormancy by priming was studied in lettuce (Lactuca sativa) ‘Montello’. SMP of lettuce was performed with Agro-Lig (Table 1). Conventional priming treatments included: −1.5 MPa PEG 8000 (Bradford, 1986, supra) and 1.0% K3PO4 (Cantliffe, et al., 1984, Plant Physiol. 75:290-294). After priming, seeds were rinsed and allowed to dry. Seeds were placed to germinate on moistened blotters in closed containers. The containers were maintained at a constant 35 C in the dark. There were four replications of 50 seeds each and the percent germination was determined after 10 days.

## O=P([O-])([O-])[O-].[K+].[K+].[K+] [1.0% K3PO4, K3PO4]
  Percent germination: 71 a %
